This is an account of results in patent publication US6337351B1, “Pharmaceutical compositions and methods for use” (Targacept, Inc., priority 1998, dated 2002).

pEC50, pKi: −log10 of the molar value.

For one assay, the system named is dopamine release. As to the kind of experiment: Dopamine release. The class given is cell-based. The note with it: for Emax: amount released relative to (S)-(-)-nicotine. As to the method: Determination of Dopamine Release
Dopamine release was measured using the techniques described in U.S. Pat. No. 5,597,919 to Dull et al. Release is expressed as a percentage of release obtained with a concentration of (S)-(−)-nicotine resulting in maximal effects. Reported EC50 values are expressed in nM, and Emax values represent the amount released relative to (S)-(−)-nicotine on a percentage basis.

The test system of assay [1] is ganglionic-type nicotinic acetylcholine receptors. As to the kind of experiment: Interaction with ganglion receptors. The assay is classed as cell-based. Conditions: at a concentration of 100 uM; relative to maximal activation by (S)-(-)-nicotine. The source says:
By this is meant that a particular dose of compound resulting in prevention and/or treatment of a CNS disorder, is essentially ineffective in eliciting activation of certain ganglionic-type nicotinic receptors. […] As such, such compounds have poor ability to cause isotopic rubidium ion flux through nicotinic receptors in cell preparations derived from the adrenal gland. Generally, typical preferred compounds useful in carrying out the present invention activate isotopic rubidium ion flux by less than 15 percent, often by less than 5 percent, of that maximally provided by S(−) nicotine.
Determination of Interaction with Ganglion Receptors
The determination of the interaction of the compounds with ganglionic receptors was carried out in accordance with the techniques described in U.S. Pat. No. 5,597,919 to Dull et al. The maximal activation for individual compounds (Emax) was determined as a percentage of the maximal activation induced by (S)-(−)-nicotine. Reported Emax values represent the amount released relative to (S)-(−)-nicotine on a percentage basis.

Assay [2] addresses T1, muscle-type nicotinic acetylcholine receptors (Homo sapiens, UniProt P02708+P07510+Q07001).
T1 construct: cell preparations expressing muscle-type nicotinic acetylcholine receptors; endogenous in cells
Kind of assay: Interaction with muscle receptors. The class given is cell-based. Conditions: at a concentration of 100 uM; relative to maximal activation by (S)-(-)-nicotine. The source says:
The compounds of the present invention, when employed in effective amounts in accordance with the method of the present invention, lack the ability to elicit activation of nicotinic receptors of human muscle to any significant degree. […] Generally, typical preferred compounds useful in carrying the present invention activate isotopic rubidium ion flux by less than 15 percent, often by less than 5 percent, of that maximally provided by S(−) nicotine.
Determination of Interaction with Muscle Receptors
The determination of the interaction of the compounds with muscle receptors was carried out in accordance with the techniques described in U.S. Pat. No. 5,597,919 to Dull et al. The maximal activation for individual compounds (Emax) was determined as a percentage of the maximal activation induced by (S)-(−)-nicotine. Reported Emax values represent the amount released relative to (S)-(−)-nicotine on a percentage basis.

The target of a further assay is CNS nicotinic receptors (Rattus norvegicus, UniProt P09483+P12390). Kind of assay: Binding to relevant receptor sites. Conditions: inhibition constants calculated from IC50 values by the method of Cheng et al. As to the method:
Determination of Binding to Relevant Receptor Sites
Binding of the compounds to relevant receptor sites was determined in accordance with the techniques described in U.S. Pat. No. 5,597,919 to Dull et al. Inhibition constants (Ki values), reported in nM, were calculated from the IC50 values using the method of Cheng et al., Biochem, Pharmacol. 22:3099 (1973).

Chain of CNS nicotinic receptors (P09483 31-630): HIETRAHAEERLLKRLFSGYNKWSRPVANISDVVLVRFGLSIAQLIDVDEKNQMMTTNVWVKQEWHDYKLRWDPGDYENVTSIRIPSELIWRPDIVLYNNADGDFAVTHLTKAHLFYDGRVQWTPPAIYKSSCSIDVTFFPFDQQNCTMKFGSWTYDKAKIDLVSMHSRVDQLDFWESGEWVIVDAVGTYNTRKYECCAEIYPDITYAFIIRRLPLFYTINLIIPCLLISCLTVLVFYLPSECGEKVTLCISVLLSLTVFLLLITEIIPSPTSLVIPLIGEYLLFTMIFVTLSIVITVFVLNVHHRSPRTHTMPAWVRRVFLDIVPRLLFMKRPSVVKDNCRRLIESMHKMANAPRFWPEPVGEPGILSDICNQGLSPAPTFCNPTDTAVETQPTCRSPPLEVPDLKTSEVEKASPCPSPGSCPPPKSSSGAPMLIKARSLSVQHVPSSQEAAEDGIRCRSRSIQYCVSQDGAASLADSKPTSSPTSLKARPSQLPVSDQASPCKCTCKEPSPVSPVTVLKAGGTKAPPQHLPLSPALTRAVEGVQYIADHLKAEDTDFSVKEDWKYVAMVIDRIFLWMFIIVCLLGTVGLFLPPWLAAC
Chain of CNS nicotinic receptors (P12390 25-500): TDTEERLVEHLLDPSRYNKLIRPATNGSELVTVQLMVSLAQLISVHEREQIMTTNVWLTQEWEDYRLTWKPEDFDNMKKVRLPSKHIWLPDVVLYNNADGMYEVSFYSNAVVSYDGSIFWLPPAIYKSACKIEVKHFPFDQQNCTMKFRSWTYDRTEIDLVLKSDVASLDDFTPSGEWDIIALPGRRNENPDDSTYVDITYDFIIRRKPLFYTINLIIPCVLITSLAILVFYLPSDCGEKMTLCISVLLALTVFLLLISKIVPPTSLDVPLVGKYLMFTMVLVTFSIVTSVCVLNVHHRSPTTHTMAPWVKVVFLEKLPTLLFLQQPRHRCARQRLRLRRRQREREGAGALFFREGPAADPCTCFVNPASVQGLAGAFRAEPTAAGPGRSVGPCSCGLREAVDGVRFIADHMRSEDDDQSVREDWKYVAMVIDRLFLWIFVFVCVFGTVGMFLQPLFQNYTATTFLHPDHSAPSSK
T1 sequence (P02708 21-457): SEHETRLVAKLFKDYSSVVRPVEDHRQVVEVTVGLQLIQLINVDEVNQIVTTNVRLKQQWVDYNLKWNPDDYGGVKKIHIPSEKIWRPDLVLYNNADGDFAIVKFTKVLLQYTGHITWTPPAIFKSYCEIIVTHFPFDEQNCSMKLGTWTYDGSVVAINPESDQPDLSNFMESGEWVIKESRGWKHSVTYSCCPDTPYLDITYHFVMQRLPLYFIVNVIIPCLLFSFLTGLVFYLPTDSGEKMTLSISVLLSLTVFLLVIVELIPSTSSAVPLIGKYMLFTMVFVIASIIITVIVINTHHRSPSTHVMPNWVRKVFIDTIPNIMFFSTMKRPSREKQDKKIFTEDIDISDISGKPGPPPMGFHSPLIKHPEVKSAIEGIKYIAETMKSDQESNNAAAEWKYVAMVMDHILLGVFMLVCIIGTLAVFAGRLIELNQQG
T1 sequence (P11230 24-501 partner): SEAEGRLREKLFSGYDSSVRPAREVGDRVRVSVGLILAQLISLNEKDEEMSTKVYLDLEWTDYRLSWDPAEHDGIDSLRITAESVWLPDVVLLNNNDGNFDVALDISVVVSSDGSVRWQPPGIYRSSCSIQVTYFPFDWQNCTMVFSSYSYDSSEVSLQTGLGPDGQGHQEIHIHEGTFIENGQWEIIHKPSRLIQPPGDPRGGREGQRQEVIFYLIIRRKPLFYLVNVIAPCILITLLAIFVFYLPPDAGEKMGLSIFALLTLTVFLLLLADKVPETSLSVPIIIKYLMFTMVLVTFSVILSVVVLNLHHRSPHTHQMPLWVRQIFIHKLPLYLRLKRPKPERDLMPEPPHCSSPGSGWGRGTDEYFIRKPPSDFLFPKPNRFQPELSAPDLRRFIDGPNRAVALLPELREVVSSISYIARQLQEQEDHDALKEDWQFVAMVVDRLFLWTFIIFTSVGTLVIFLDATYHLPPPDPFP
T1 sequence (Q07001 22-517): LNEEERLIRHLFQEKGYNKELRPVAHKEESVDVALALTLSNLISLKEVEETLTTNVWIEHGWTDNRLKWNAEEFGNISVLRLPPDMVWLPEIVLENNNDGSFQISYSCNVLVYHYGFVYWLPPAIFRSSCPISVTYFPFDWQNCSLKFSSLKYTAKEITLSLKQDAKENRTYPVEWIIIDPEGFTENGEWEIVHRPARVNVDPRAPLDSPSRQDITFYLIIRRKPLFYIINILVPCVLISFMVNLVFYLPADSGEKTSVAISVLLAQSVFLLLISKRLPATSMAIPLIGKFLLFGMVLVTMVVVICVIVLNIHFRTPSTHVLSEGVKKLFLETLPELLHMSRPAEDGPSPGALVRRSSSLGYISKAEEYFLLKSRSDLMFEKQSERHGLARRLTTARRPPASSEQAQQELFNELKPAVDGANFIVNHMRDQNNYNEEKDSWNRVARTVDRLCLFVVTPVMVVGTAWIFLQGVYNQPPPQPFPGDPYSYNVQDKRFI
T1 sequence (P07510 23-517): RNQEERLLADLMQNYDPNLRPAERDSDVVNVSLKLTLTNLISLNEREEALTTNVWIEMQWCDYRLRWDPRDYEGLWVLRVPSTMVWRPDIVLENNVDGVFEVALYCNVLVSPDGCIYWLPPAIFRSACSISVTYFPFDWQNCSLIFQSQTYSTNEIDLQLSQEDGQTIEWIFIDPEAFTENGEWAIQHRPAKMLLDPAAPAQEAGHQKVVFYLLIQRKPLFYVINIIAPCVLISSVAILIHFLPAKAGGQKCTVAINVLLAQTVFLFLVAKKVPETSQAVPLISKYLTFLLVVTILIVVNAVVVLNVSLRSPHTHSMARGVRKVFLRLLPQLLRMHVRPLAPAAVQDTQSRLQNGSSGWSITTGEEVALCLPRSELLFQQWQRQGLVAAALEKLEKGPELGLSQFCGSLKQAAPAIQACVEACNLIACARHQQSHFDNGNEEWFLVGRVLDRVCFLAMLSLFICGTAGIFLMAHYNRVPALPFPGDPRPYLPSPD

On to `NCC/C=C/c1cccc(N)c1` [Sample No. 1, (E)-4-(3-aminophenyl)-3-buten-1-amine], for which, in the assay on dopamine release, the pEC50 (commonly −log10 of the EC50, conventionally taken in molar units) was 4.90 and the Emax (commonly the size of the effect at its maximum, as opposed to the concentration needed) was 74%. Also, the “Emax at ganglionic-type receptors” value in assay [1] amounted to 4%. Further, the Emax at 100 µM in assay [2] came to 0%.
On the same counts, the results for `CNCC/C=C/c1cccc(N)c1` [Sample No. 2, (E)-N-methyl-4-(3-aminophenyl)-3-buten-1-amine] are 6.04, 78%, 3% and 7%.
On the same counts, the results for `CNC(C)C/C=C/c1cccc(N)c1` (centres unmarked) [Sample No. 3, (E)-N-methyl-5-(3-aminophenyl)-4-penten-2-amine] are 6.04, 78%, 6% and 2%.
Take “(4E)-N-methyl-5-(3,4-methylenedioxyphenyl)-4-penten-2-amine hemigalactarate [Sample No. 4]”: on CNS nicotinic receptors, the negative-log Ki (pKi) (commonly −log10 of the Ki, conventionally taken in molar units) is 4.93.
Still for that read-out and setting: in the case of “(4E)-N-methyl-5-(3-acetamido-4-methylphenyl)-4-penten-2-amine hemigalactarate [Sample No. 10]” it was 5.00.
Regarding “(4E)-N-methyl-5-(3-amino-4-methylphenyl)-4-penten-2-amine hemigalactarate [Sample No. 9]”, the pKi on CNS nicotinic receptors is 5.48.
As to “(4E)-N-methyl-5-(3-fluorophenyl)-4-penten-2-amine hemigalactarate [Sample No. 6]”, the pKi at CNS nicotinic receptors is 5.24.
The same measure, in the same setting: in the case of “(4E)-N-methyl-5-(4-methyl-3-nitrophenyl)-4-penten-2-amine hemigalactarate [Sample No. 7]” it was 5.19.
